# Data taken from article PMC2362735, “New semisynthetic vinca alkaloids: chemical, biochemical and cellular studies” (British Journal of Cancer, 1999).
# Experiments:
# [1] = tested on: Mouse leukaemia P388 cells; test: In vivo anti-tumour effect on P388 mouse leukaemia, single i.p. dose; settings: P388 mice, single dose i.p.
# Description: (§1) The numerous antimitotic drugs already developed and therapeu- tically used for a large number of pathologies belong to different classes based on their chemical structure and other distinctive features. Antimitotic drugs usually target the tubulin/microtubule network of the cytoskeleton that is formed by assembly of cyto- plasmic tubulin dimers. The stability of the different microtubular structures varies considerably; some of their functions depend on their lability. The lability is augmented by the extreme sensitivity to various drugs. Several synthetic and natural compounds interact specifically with tubulin and/or microtubule, fundamentally destroying its dynamic character and leading to cell death. […] Because of their extensive clinical use, it is important to synthesize additional agents having at least the same biological activity. […] Nevertheless, it is unclear yet how the anti-calmodulin activity of these drugs is related to their desired and undesired pharmacological effects. […] The synthesis of the KAR derivatives are presented. […] Taxol, GTP and trifluoperazine were purchased from Sigma. All organic reagents for synthesis of the new compounds were obtained from Aldrich and were of the highest grade. All other chemicals were reagent grade commercial preparations. […] Tubulin was stored in 1 M sucrose, 10 mM sodium phosphate buffer, 0.5 mM magnesium chloride and 0.1 mM GTP, pH 7.0, at -80C and dialysed against the appropriate buffer before use. […] PFK, aldolase and glycerol-3-phosphate dehydrogenase- triosephosphate isomerase purified from rabbit skeletal muscle were purchased in ammonium sulphate suspensions from Sigma or Boehringer. The enzyme suspensions were centrifuged at 10 000g for 5 min. The pellets were suspended in the appropriate buffer, then the enzymes were gel filtered or dialysed in the same buffer to remove ammonium sulphate. […] (Figure 1B; R1 , CH3; R2 , CH2 CH2 Cl). […] After 2 h incubation at room temperature, 200 ml dried toluene was added to the reaction mixture. […] The mixture was stirred for 30 min. After separation of the organic phase, it was washed with water (3 x 30 ml) and dried with potassium sulphate and evaporated on a water bath of 35-40C at 20-27 hPa. The resulting material was chromatographed on silica gel (500 g, bead size of 0.040- 0.063 mm) column (30 mm x 500 mm) using ethyl acetate/ethanol (9:1) mixture as eluent. […] The mixture was kept for 4 h at room temperature and then evaporated on a water bath at 40C under a vacuum of 80 hPa to a final volume of 5-6 ml. […] (Figure 1B, R1 , CHO; R2 , CH2 CH2 Cl). […] Synthesis of KAR-4 [3-allyl-2,4-dioxo-3,5-spiro-oxazolidino- 4-deacetoxy-vinblastine] (Figure 1B; R1 , CH3; R2 , CH2 CH=CH2 ). […] NMR measurements were carried out on a Varian Unity plus-500 instrument (500 MHz for 1H and 125 MHz for 13C) in DMSO. Chemical shifts were determined relative to dTMS = 0.00 p.p.m. 1H and 13C signal assignments were verified by a concerted use of two-dimensional 1H-1H and 1H-13C shift correlation methods (DQFCOSY, HSQC, HMBC) and NOESY experiments. The gradient-enhanced DQFCOSY, HSQC, HMBC and NOESY experiments were recorded by using the standard spectrometer software package. A mixing time of tmix = 0.5 s was used for the NOESY experiments.
# [2] = tested on: Mouse leukaemia P388 cells; set-up: method as in Orosz et al (1997a); settings: P388, single doses i.p.; data published also in ref Orosz et al (1997a); cited from earlier work
# tubulin = test: Taxol-induced tubulin polymerization, turbidity at 350 nm; type: biochemical, calf; settings: taxol-induced assembly, MES buffer pH 6.8, 37C; average of three independent measurements; read-out: Anti-tubulin effect, turbidity at 350 nm, IC50
# Description: as §1
smiles,measurement,setting,value
"CC[C@]1(O)C[C@@H]2CN(CCc3c([nH]c4ccccc34)[C@@](C(=O)OC)(c3cc4c(cc3OC)N(C)[C@@H]3[C@]45CCN4CC=C[C@@](CC)(C[C@@]36OC(=O)N(CCCl)C6=O)[C@H]45)C2)C1 [KAR-2, 3′-(β-chloroethyl)-2′,4′-dioxo-3,5′-spiro-oxazolidino-4-deacetoxy-vinblastine]",maximal tolerated dose,[1],80 mg/kg
same,Dose (mg kg-1) giving the maximal effect,[2],60 mg/kg
same,Maximal effect T/C (%),[2],207%
same,IC50,tubulin,200 nM
